Test results taken from paper PMC9795544, “Identifying Novel Inhibitors for Hepatic Organic Anion Transporting Polypeptides by Machine Learning-Based Virtual Screening” (Journal of Chemical Information and Modeling, 2022).
Like-named read-outs stand apart in the source and are kept apart here.

Experiments:
Type in all cases: cell-based
[1] = molecular target: T1, OATP1B3 (Homo sapiens, UniProt Q9NPD5); experiment: Pyranine transport inhibition in A431 cells overexpressing OATP1B3; conditions: for IC50: read-out: IC50 (μM) OATP1B3
T1 construct: expressed in transfected cells; host or cells: A431 cells
T1 sequence (Q9NPD5 1-702): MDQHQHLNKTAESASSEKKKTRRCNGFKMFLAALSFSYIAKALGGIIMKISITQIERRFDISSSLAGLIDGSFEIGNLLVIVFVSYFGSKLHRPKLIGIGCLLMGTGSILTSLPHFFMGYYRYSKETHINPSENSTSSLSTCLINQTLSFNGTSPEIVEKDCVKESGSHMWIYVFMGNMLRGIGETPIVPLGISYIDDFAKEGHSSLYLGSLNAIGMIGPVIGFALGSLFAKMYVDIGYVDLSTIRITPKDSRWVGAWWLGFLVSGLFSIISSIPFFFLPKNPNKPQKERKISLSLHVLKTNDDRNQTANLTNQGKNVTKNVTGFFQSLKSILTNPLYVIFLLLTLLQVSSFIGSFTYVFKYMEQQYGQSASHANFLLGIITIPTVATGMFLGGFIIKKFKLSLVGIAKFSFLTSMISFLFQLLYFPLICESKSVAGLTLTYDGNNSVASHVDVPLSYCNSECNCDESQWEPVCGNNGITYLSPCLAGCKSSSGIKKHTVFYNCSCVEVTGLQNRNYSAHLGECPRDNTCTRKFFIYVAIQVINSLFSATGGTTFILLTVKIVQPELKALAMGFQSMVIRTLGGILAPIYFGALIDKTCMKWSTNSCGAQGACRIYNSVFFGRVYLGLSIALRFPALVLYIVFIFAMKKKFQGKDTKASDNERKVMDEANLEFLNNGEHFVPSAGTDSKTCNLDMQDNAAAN
Protocol: (§1) A431 cells overexpressing OATP1B1, OATP1B3, or OATP2B1 or their mock transfected controls were generated previously[30] and maintained in Dulbecco’s modified Eagle medium (DMEM, Gibco, Thermofisher Scientific, Waltham, MA, US) supplemented with 10% fetal bovine serum, 2 mM L-glutamine, 100 units/mL penicillin, and 100 μg/mL streptomycin. Expression and function of OATPs in the cell lines were checked regularly.
(§2) Interaction with OATP1B1, OATP1B3, or OATP2B1 was tested in an indirect transport assay using pyranine (8-hydroxypyrene-1,3,6-trisulfonic acid trisodium salt, H1529, Sigma, Merck, Budapest, Hungary) as the test substrate[31],[32] A431 cells overexpressing OATP1B1, OATP1B3, or OATP2B1 or their mock transfected controls were seeded on 96-well plates in a density of 8 × 10^4 cells per well in 200 μL of cell culture medium 1 day prior to the transport measurements. […] The transport reaction was started by the addition of 50 μL of uptake buffer containing pyranine in a final concentration of 10 μM (OATP1B1) or 20 μM (OATP1B3 and OATP2B1), and the cells were further incubated at 37 °C for 15 min (OATP1B1 and OATP2B1) or 30 min (OATP1B3). The reaction was stopped by removing the supernatant. After repeated washing with ice-cold PBS, fluorescence was determined in an Enspire plate reader (PerkinElmer, Waltham, MA) with excitation/emission wavelengths of 460/510 nm. OATP-dependent transport was calculated by extracting fluorescence measured in mock transfected cells and normalized to the fluorescence signal obtained in the absence of the tested compounds (100%). Experiments were repeated in at least three biological replicates.

[2] = molecular target: T2, OATP1B1 (Homo sapiens, UniProt Q9Y6L6); experiment: Pyranine transport inhibition in A431 cells overexpressing OATP1B1
T2 construct: expressed in transfected cells; host or cells: A431 cells
T2 sequence (Q9Y6L6 1-691): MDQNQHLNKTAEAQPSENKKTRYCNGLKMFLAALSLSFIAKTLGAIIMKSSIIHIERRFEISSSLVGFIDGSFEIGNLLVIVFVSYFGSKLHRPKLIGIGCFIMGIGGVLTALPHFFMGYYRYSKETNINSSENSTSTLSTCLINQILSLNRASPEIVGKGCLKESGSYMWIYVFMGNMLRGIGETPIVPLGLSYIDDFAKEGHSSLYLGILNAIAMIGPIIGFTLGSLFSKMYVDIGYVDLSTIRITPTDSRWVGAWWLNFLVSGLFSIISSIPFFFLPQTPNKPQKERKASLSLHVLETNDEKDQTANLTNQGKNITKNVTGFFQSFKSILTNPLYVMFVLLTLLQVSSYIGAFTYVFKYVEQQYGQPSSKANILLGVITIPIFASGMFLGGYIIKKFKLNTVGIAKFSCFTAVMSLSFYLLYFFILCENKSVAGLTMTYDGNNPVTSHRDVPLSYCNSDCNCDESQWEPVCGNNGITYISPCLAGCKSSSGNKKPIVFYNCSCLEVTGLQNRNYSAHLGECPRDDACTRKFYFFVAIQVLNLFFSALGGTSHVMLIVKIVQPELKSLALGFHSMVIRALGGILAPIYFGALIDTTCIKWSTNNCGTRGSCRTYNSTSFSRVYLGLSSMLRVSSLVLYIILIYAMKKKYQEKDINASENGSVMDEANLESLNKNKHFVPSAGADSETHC
Protocol: as §1, §2

[3] = molecular target: T3, OATP2B1 (Homo sapiens, UniProt O94956); experiment: Pyranine transport inhibition in A431 cells overexpressing OATP2B1
T3 construct: expressed in transfected cells; host or cells: A431 cells
T3 sequence (O94956 1-709): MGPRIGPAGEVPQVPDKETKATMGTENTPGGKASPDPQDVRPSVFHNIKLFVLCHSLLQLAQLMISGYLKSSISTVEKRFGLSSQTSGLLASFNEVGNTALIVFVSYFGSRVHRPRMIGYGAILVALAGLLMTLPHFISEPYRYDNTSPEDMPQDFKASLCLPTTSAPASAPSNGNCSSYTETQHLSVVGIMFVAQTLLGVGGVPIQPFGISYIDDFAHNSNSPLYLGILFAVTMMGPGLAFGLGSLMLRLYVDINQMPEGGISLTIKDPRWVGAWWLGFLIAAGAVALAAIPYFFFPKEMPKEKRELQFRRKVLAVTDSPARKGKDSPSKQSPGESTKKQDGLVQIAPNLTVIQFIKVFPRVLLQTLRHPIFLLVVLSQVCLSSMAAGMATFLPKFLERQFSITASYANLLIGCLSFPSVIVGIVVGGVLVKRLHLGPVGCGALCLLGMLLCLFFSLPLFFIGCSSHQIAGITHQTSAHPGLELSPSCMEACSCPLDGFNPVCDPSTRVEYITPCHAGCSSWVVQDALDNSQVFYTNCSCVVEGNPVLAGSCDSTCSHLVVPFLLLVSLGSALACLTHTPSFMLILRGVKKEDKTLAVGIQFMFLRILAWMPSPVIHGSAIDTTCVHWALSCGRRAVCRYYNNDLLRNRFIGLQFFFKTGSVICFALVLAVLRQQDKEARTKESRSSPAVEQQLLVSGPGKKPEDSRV
Protocol: as §1, §2

[4] = initial three-point screen (1, 10, 100 μM), category by concentration needed for 50% inhibition, pyranine 20 μM, 30 min, pH 5.5
[5] = initial three-point screen (1, 10, 100 μM), category by concentration needed for 50% inhibition, pyranine 10 μM, 15 min, pH 5.5, read-out: IC50 (μM) OATP1B1
[6] = initial three-point screen (1, 10, 100 μM), category by concentration needed for 50% inhibition, pyranine 20 μM, 15 min, pH 5.5, read-out: IC50 (μM) OATP2B1
[7] = IC50 (μM) OATP2B1, initial three-point screen (1, 10, 100 μM), category by concentration needed for 50% inhibition, pyranine 20 μM, 15 min, pH 5.5
[8] = full dose-response curve, eight concentrations, Hill1 fit
[9] = full dose-response curve, eight concentrations, Hill1 fit, read-out: IC50 (μM) OATP2B1
[10] = full dose-response curve, eight concentrations, Hill1 fit, read-out: IC50 (μM) OATP1B1

IC50 [1, 4] | IC50 [2, 5] | IC50 [3, 6] | IC50 (μM) OATP1B3 [1, 4] | Compound | also measured
> 10 µM | 1 to 10 µM | 1 to 10 µM |  | CSCCC(NC(=O)c1ccco1)C(=O)OCc1cc(=O)oc2cc(O)ccc12 (stereo not drawn) [B7, CSCCC(NC(=O)c1occc1)C(=O)OCC2=CC(=O)Oc3cc(O)ccc23] | 
> 10 µM | 1 to 10 µM | 1 to 10 µM |  | CCc1ccccc1NC(=O)CN1CCN(C(=O)c2cc(-c3ccncc3)nc3ccccc23)CC1 [C3, CCc1ccccc1NC(=O)CN2CCN(CC2)C(=O)c3cc(nc4ccccc34)c5ccncc5] | 
 |  |  | no effect | Cc1cccn2cc(COC(=O)c3ccc4c(c3)C(=O)N(Cc3ccco3)C4=O)nc12 [C4, Cc1cccn2cc(COC(=O)c3ccc4C(=O)N(Cc5occc5)C(=O)c4c3)nc12] | IC50 [2]: > 10 µM; IC50 [3, 7]: > 10 µM
 | > 10 µM | > 10 µM | no effect | Cc1cccc2nc(CSc3nc4sc5c(c4c(=O)n3Cc3ccccc3)CCCC5)cn12 [C5, Cc1cccc2nc(CSC3=Nc4sc5CCCCc5c4C(=O)N3Cc6ccccc6)cn12] | 
1 to 10 µM | 1 to 10 µM | 1 to 10 µM |  | CC(C)c1cc(C(=O)N2CCC(n3c(=O)[nH]c4ccccc43)CC2)c2cnn(C(C)C)c2n1 [C6, CC(C)c1cc(C(=O)N2CCC(CC2)N3C(=O)Nc4ccccc34)c5cnn(C(C)C)c5n1] | 
1 to 10 µM |  | < 1 µM |  | O=C(O)c1cc(/C=C/c2c(-c3ccccc3)nc3ccccn23)nc2ccccc12 [C7, OC(=O)c1cc(\C=C\c2c(nc3ccccn23)c4ccccc4)nc5ccccc15] | IC50 [1, 8]: 5.4 µM; fold lower affinity on OATP1B3 than on OATP2B1 ([1]; ratio of IC50 OATP1B3 / OATP2B1): 135 fold; IC50 [2]: > 10 µM; IC50 [3, 9]: 0.04 µM
> 10 µM | > 10 µM | > 10 µM |  | O=C1NC2(CCCc3sccc32)C(=O)N1CC(=O)N1c2ccccc2OCC1c1ccccc1 (stereo not drawn) [D2, O=C(CN1C(=O)NC2(CCCc3sccc23)C1=O)N4C(COc5ccccc45)c6ccccc6] | 
 |  | > 10 µM | no effect | O=C(CCN1C(=O)NC2(CCCC2)C1=O)Nc1nc(-c2ccc3c(c2)CCC3)cs1 [D3, O=C(CCN1C(=O)NC2(CCCC2)C1=O)Nc3nc(cs3)c4ccc5CCCc5c4] | IC50 (μM) OATP1B1 ([2]; initial three-point screen (1, 10, 100 μM), category by concentration needed for 50% inhibition, pyranine 10 μM, 15 min, pH 5.5): no effect
1 to 10 µM | 1 to 10 µM |  |  | Cn1c(=O)[nH]c(=O)c2c1nc(N/N=C1/C(=O)Nc3ccccc31)n2CCCc1ccccc1 [E3, CN1C(=O)NC(=O)c2c1nc(N\N=C/3\C(=O)Nc4ccccc34)n2CCCc5ccccc5] | IC50 [1, 8]: 1.53 µM; IC50 [2, 10]: 2.69 µM; IC50 [3, 9]: 1.32 µM
 | 1 to 10 µM |  |  | O=C(NCc1cn(Cc2ccccc2)nc1-c1ccccc1)c1cc(F)cc(F)c1 [E5, Fc1cc(F)cc(c1)C(=O)NCc2cn(Cc3ccccc3)nc2c4ccccc4] | IC50 [1, 8]: 7.5 µM; IC50 [2, 10]: 7.61 µM; IC50 [3, 9]: 1.48 µM
> 10 µM | > 10 µM | 1 to 10 µM |  | CCn1cnc2c1c(=O)n(CC(=O)NC1CCCC(C)C1C)c(=O)n2Cc1ccccc1 (stereo not drawn) [E6, CCn1cnc2N(Cc3ccccc3)C(=O)N(CC(=O)NC4CCCC(C)C4C)C(=O)c12] | 
> 10 µM | > 10 µM | > 10 µM |  | O=C(Nc1ccccc1)N1CCCC(C(=O)N2CCN(Cc3nc4ccccc4s3)CC2)C1 (stereo not drawn) [F3, O=C(Nc1ccccc1)N2CCCC(C2)C(=O)N3CCN(Cc4nc5ccccc5s4)CC3] | 

Compound | IC50 [1, 4] | IC50 [2, 5] | IC50 [3, 6] | IC50 (μM) OATP1B3 [1, 4] | also measured
O=C(COc1ccc([N+](=O)[O-])cc1)Nc1c(C(=O)N2CCOCC2)oc2ccccc12 [D7, [O-][N+](=O)c1ccc(OCC(=O)Nc2c(oc3ccccc23)C(=O)N4CCOCC4)cc1] |  |  |  | no effect | IC50 [2]: > 10 µM; IC50 [3, 7]: > 10 µM
COc1ccc(C2(c3ccc(OC)cc3)NC(=O)N(CC(=O)c3ccc4c(c3)OCO4)C2=O)cc1 [E2, COc1ccc(cc1)C2(NC(=O)N(CC(=O)c3ccc4OCOc4c3)C2=O)c5ccc(OC)cc5] | 1 to 10 µM | > 10 µM | 1 to 10 µM |  | 
Cc1ccc(OCc2nnc(SCC(=O)N3CCN(C(=O)Nc4ccccc4)CC3)o2)cc1 [F4, Cc1ccc(OCc2oc(SCC(=O)N3CCN(CC3)C(=O)Nc4ccccc4)nn2)cc1] |  |  |  | Activated | IC50 [2]: > 10 µM; IC50 [3, 7]: > 10 µM
